Measured values taken from patent US11116757B2 (priority 2015, dated 2021).

target: DCN1-UBC12 interaction (Homo sapiens (Human), UniProt Q96GG9); assay: biochemical; type: binding; conditions: Table 4, commercial compounds; read-out: TR-FRET IC50
Sequence (Q96GG9 60-248 limits assumed): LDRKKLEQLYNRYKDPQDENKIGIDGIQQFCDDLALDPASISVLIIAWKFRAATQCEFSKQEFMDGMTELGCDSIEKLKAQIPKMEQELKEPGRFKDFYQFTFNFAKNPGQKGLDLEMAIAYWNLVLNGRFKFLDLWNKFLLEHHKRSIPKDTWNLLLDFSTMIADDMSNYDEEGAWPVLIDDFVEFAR

| Compound | IC50 [µM] |
| --- | --- |
| O=C(Nc1cccc(C(F)(F)F)c1)C1CCN(C(=O)c2cccc(F)c2)CC1 [C10] | > 42.9 |
| COc1ccc(C(=O)NC2CCN(C(=O)c3ccc(OC)cc3)CC2)cc1 [C71] | > 92.2 |
| Cc1cccc(NC(=O)C2CCN(C(=O)c3cccc4ccccc34)CC2)c1 [C63] | > 67.6 |
| O=C(Nc1ccc(C(F)(F)F)cc1)C1CCN(C(=O)c2ccccc2F)CC1 [C65] | > 68.1 |
| COc1ccc(C(=O)N2CCC(C(=O)Nc3cccc(F)c3)CC2)c2ccccc12 [C58] | > 67.6 |
| COc1cccc(NC(=O)C2CCN(C(=O)c3cccc(F)c3)CC2)c1 [C43] | > 67.6 |

same assay, conditions: Table 6, commercial compounds; read-out: TR-FRET IC50

| Compound | IC50 [µM] |
| --- | --- |
| CN1CCN(C(=O)c2cnn(-c3nccc(-c4cccs4)n3)c2C2CC2)CC1 [E33] | > 67.6 |
| CCN1CCN(C(=O)c2cnn(-c3nccc(-c4cccs4)n3)c2C(C)C)CC1 [E4] | 13.1 |
| CCN(CC)CCN(CC)C(=O)c1cnn(-c2ncc(C)c(-c3cccs3)n2)c1COC [E16] | 33.3 |
| CC(C)c1c(C(=O)N2CCN(CCO)CC2)cnn1-c1nccc(-c2cccs2)n1 [E7] | 21.3 |
| Cc1cnc(-n2ncc(C(=O)N(C)CC(C)C)c2C)nc1-c1cccs1 [E41] | > 67.6 |
| CCCN1CCN(C(=O)c2cnn(-c3nccc(-c4cccs4)n3)c2COC)CC1 [E27] | > 16.7 |
| CCN(CC)CCN(C)C(=O)c1cnn(-c2nccc(-c3cccs3)n2)c1C1CC1 [E34] | > 67.6 |
| CCN(CC)CCN(CC)C(=O)c1cnn(-c2ncc3c(n2)-c2ccccc2CC3)c1C1CC1 [E9] | 23.1 |
| C=CCN(CC=C)C(=O)c1cnn(-c2nccc(-c3cccs3)n2)c1COC [E39] | > 67.6 |

same assay, conditions: Table 7, commercial compounds; read-out: TR-FRET IC50

| Compound | IC50 [µM] |
| --- | --- |
| COc1ccc(C2c3c(C)nn(C)c3NC(=O)C2NC(=O)c2cccc(C)c2)cc1OC (stereo not shown) [F14] | > 67.6 |
| CSc1ccc(C2c3c(C)nn(C)c3NC(=O)C2NC(=O)c2cccc(C)c2)cc1 (stereo not shown) [F6] | 39.5 |

same assay, conditions: read-out: TR-FRET IC50

| Compound | IC50 [µM] |
| --- | --- |
| CCCC(C)N1CCC(N(Cc2ccccc2)C(=O)Nc2ccc(Cl)c([N+](=O)[O-])c2)CC1 (stereo not shown) [A11] | 0.0818 |
| CCCC(C)N1CCC(N(Cc2cccnc2)C(=O)Nc2ccc(Cl)c(Cl)c2)CC1 (stereo not shown) [A16] | 0.0905 |
| Cc1cccc(NC(=O)NC2CCN(C(=O)c3ccccc3)CC2)c1 [B111] | > 73.2 |
| CCCC(C)N1CCC(N(Cc2ccccc2CNC(=O)CCl)C(=O)Nc2cccc(C(F)(F)F)c2)CC1 (stereo not shown) [drawing 848] | 0.154 |
| CCN1CCC(NC(=O)Nc2cccc(C(F)(F)F)c2)CC1 [B15] | 49.7 |
| CC(N1CCC(N(Cc2ccccc2)C(=O)Nc2cccc(C(F)(F)F)c2)CC1)C(F)(F)F (stereo not shown) [A223] | > 25.3 |
| Cn1ccnc1CN1CCC(N(Cc2ccccc2)C(=O)Nc2cc(F)cc(C(F)(F)F)c2)CC1 [A229] | > 28.6 |
| CCCC(C)N1CCC(N(Cc2ccccc2)C(=O)Nc2cccc(F)c2F)CC1 (stereo not shown) [A162] | 8.22 |
| CCCC(C)N1CCC(N(Cc2ccccc2)C(=O)Nc2cc(Cl)c(O)c(Cl)c2)CC1 (stereo not shown) [A260] | > 62.5 |
| O=C(Nc1cccc(C(F)(F)F)c1)N1CCN(C(c2ccccc2)c2ccccc2)CC1 [B40] | > 62.8 |
| CCCC(C)N1CCC(N(Cc2ccccc2)C(=O)Nc2ccc(C)cc2)CC1 (stereo not shown) [A50] | 0.268 |
| COc1ccc(NC(=O)N(Cc2ccco2)C2CCN(C(C)=O)CC2)cc1 [B70] | > 67.6 |
| CCCC(C)N1CCC(N(Cc2ccccc2)C(=O)Nc2cc(C)oc2C(F)(F)F)CC1 (stereo not shown) [A255] | > 60.2 |
| CCCC(C)N1CCC(N(Cc2ccccc2)C(=O)Nc2ccc(OC)cc2OC)CC1 (stereo not shown) [A197] | > 111 |
| CCCC(C)N1CCC(N(Cc2ccccc2)C(=O)Nc2ccc(OC)cc2C)CC1 (stereo not shown) [A275] | > 68.6 |
| Cc1ccc(C(=O)N2CCC(c3nc4ccccc4s3)CC2)cc1C [D17] | > 53.9 |
| C=CS(=O)(=O)Nc1cccc(CN(C(=O)Nc2cccc(C(F)(F)F)c2)C2CCN(C(C)CCC)CC2)c1 (stereo not shown) [drawing 844] | 0.165 |
| CCCC(C)N1CCC(N(Cc2ccccc2)C(=O)Nc2cc(Cl)c(Cl)cc2F)CC1 (stereo not shown) [A78] | 0.801 |
| CCOC(=O)Cc1ccc(NC(=O)N(Cc2ccco2)C2CCN(C(C)=O)CC2)cc1 [B75] | > 67.6 |
| CCCC(C)N1CCC(N(Cc2ccccc2)C(=O)Nc2ccc(Br)cc2Cl)CC1 (stereo not shown) [A111] | 2.24 |
| CC(=O)N1CCC(N(C(=O)Nc2cccc(C(F)(F)F)c2)C(C)C)CC1 [B65] | > 67.6 |
| CCCCN1CCC(N(Cc2ccccc2)C(=O)Nc2cc(F)cc(F)c2)CC1 [A142] | 4.26 |
| CCCC(C)N1CCC(N(Cc2ccccc2)C(=O)Nc2ccc(-c3cccc(C(=O)OC)c3)cc2)CC1 (stereo not shown) [A116] | 2.37 |
| CCCC(C)N1CCC(N(Cc2ccccc2)C(=O)Nc2cccc(-c3ccccc3)c2)CC1 (stereo not shown) [A129] | 2.67 |
| CCCCN1CCC(N(Cc2ccccc2)C(=O)Nc2cccc([N+](=O)[O-])c2)CC1 [A104] | 1.85 |

| Compound | IC50 [µM] |
| --- | --- |
| O=C(Nc1cccc(-n2cccc2)c1)NC1CCN(Cc2ccccc2)CC1 [A282, 1-(3-(1H-Pyrrol-1-yl)Phenyl)-3-(1-Benzylpiperidin-4-yl)Urea] | > 71.3 |
| FC(F)(F)c1cccc(CNC2CCN(Cc3ccccc3)CC2)c1 [B32] | > 55.3 |
| COc1ccc(CN(C(=O)Nc2ccccc2Cl)C2CCN(C(C)=O)CC2)cc1 [B13] | 37.5 |
| O=C(NCc1cccc(C(F)(F)F)c1)C1CCN(Cc2ccccc2)CC1 [B41] | > 63.9 |
| O=C(Nc1cc(F)cc(C(F)(F)F)c1)N(Cc1ccccc1)C1CCN(CC2CCOC2)CC1 (stereo not shown) [A144] | 4.49 |
| COc1ccc(CN(C(=O)Nc2ccccc2F)C2CCN(C(C)=O)CC2)cc1 [B86] | > 67.6 |
| CCCC(C)N1CCC(N(Cc2ccccc2)C(=O)Nc2cc(C)cc(C)c2)CC1 (stereo not shown) [A98] | 1.38 |
| CCCC(C)N1CCC(N(Cc2ccccc2)C(=O)NCc2ccc(N)cc2)CC1 (stereo not shown) [A233] | > 39.4 |
| COc1ccc(CN(C(=O)Nc2cc(C)ccc2OC)C2CCN(C(C)=O)CC2)cc1 [B87] | > 67.6 |
| CCCC(C)N1CCC(N(Cc2ccccc2)C(=O)Nc2cccc(SC)c2)CC1 (stereo not shown) [A44] | 0.254 |
| C#CCCCN1CCC(N(Cc2ccccc2NC(=O)CC)C(=O)Nc2ccc(Cl)c(Cl)c2)CC1 [A199] | > 14.5 |
| CCCC(C)N1CCC(N(Cc2ccccc2)C(=O)Nc2cnc(Cl)nc2)CC1 (stereo not shown) [A241] | > 52.4 |
| CCCC(C)N1CCC(N(Cc2ccccc2)C(=O)Nc2cccc(OCc3ccccc3)c2)CC1 (stereo not shown) [A94] | 1.29 |
| CCCC(C)N1CCC(N(Cc2ccccc2)C(=O)Nc2cc(Cl)cc(C(F)(F)F)c2)CC1 (stereo not shown) [A113] | 2.35 |
| CCCC(C)N1CCC(N(Cc2ccccc2)C(=O)Nc2ccn(-c3ccc(Cl)cc3)n2)CC1 (stereo not shown) [A153] | 6.47 |
| COc1ccccc1N1CCN(CC(=O)Nc2cccc(C(F)(F)F)c2)CC1 [B107] | > 72.3 |
| CCCC(C)N1CCC(N(Cc2ccccc2)C(=O)Nc2ccccc2F)CC1 (stereo not shown) [A295] | > 81.1 |
| CCCC(C)N1CCC(N(Cc2ccccc2)C(=O)Nc2ccc(Cl)c(Cl)c2F)CC1 (stereo not shown) [A40] | 0.227 |
| CCCC(C)N1CCC(N(Cc2ccccc2)C(=O)Nc2ccc(Br)cc2C)CC1 (stereo not shown) [A165] | 9.43 |
| CCN1CCC(N(Cc2ccco2)C(=O)Nc2ccc(OC)c(OC)c2)CC1 [B77] | > 67.6 |
| O=C(Nc1ccc(Br)cc1Cl)NC1CCN(Cc2ccccc2)CC1 [B50] | > 67.6 |
| 1-Benzyl-1-(1-Hexylpiperidin-4-yl)-3-(3-(Trifluoromethyl)Phenyl)Urea [A289] | > 73.2 |
| CCCC(C)N1CCC(N(Cc2cccc(NC(=O)CCl)c2)C(=O)Nc2cccc(C(F)(F)F)c2)CC1 (stereo not shown) [drawing 842] | 0.095 |
| COc1cccc(NC(=O)NC2CCN(Cc3ccccc3)CC2)c1 [B61] | > 67.6 |
| CCCC(C)N1CCC(N(Cc2ccccc2)C(=O)Nc2cc(F)cc(C(F)(F)F)c2)CC1 (stereo not shown) [A6] | 0.058 |

| Compound | IC50 [µM] |
| --- | --- |
| CCCC(C)N1CCC(N(Cc2ccccc2)C(=O)Nc2ccc([N+](=O)[O-])c(C(F)(F)F)c2)CC1 (stereo not shown) [A237] | > 48.4 |
| CN(C)c1ccc(CN2CCC(N(Cc3ccccc3)C(=O)Nc3cc(F)cc(C(F)(F)F)c3)CC2)cc1 [A209] | > 21.5 |
| CC1CC(N(C)C(=O)Nc2ccccn2)CCN1Cc1ccccc1 (stereo not shown) [B106] | > 71.5 |
| CCCC(C)N1CCC(N(Cc2ccccc2)C(=O)Nc2cccc(F)c2)CC1 (stereo not shown) [A72] | 0.621 |
| C=CC(=O)NCCCN(C(=O)Nc1cccc(C(F)(F)F)c1)C1CCN(C(C)CCC)CC1 (stereo not shown) [A134] | 3.34 |
| O=C(CN1CCC(Cc2ccccc2)CC1)Nc1cc(C(F)(F)F)cc(C(F)(F)F)c1 [B118] | > 78.5 |
| CCOc1ccc(NC(=O)N(Cc2ccco2)C2CCN(CC)CC2)cc1 [B80] | > 67.6 |
| CCCC(C)N1CCC(N(Cc2ccccc2)C(=O)Nc2ccc(Cl)c(Cl)c2)CC1 (stereo not shown) [A46] | 0.257 |
| CCCC(C)N1CCC(N(Cc2cccc(NC(=O)CCl)c2)C(=O)Nc2cccc(C(F)(F)F)c2)CC1 (stereo not shown) [A17] | 0.0951 |
| CCCC(C)N1CCC(N(Cc2ccccc2)C(=O)Nc2ccc(C)cc2Cl)CC1 (stereo not shown) [A175] | 13.6 |
| CCCN1CCC(NC(=O)Nc2ccccc2Cl)CC1 [B51] | > 67.6 |
| CCCC(C)N1CCC(N(Cc2ccccc2)C(=O)Nc2ccc(OC)c(F)c2)CC1 (stereo not shown) [A109] | 2.2 |
| CCOc1cc(C(=O)N2CCCC(c3nc4ccccc4s3)C2)cc(Br)c1OC (stereo not shown) [D28] | > 67.6 |
| O=C(c1ccc(I)cc1)N1CCCC(c2nc3ccccc3s2)C1 (stereo not shown) [D31] | > 67.6 |
| CCCC(C)N1CCC(N(Cc2ccccc2)C(=O)Nc2c(C)cccc2C)CC1 (stereo not shown) [A259] | > 62.4 |
| CCCC(C)N1CCC(N(Cc2ccccc2)C(=O)Nc2ccc(F)cc2Br)CC1 (stereo not shown) [A302] | > 86.9 |
| CCCC(C)N1CCC(N(Cc2ccccc2)C(=O)Nc2ccc(F)c(-c3nc4ccccc4o3)c2)CC1 (stereo not shown) [A268] | > 67.1 |
| CCCC(C)N1CCC(N(Cc2ccccc2)C(=O)Nc2cc(Br)ccc2Cl)CC1 (stereo not shown) [A267] | > 66.9 |
| CCCCN1CCC(N(Cc2ccccc2)C(=O)Nc2cccc(C#N)c2)CC1 [A242] | > 52.5 |
| C#CCCCN1CCC(N(Cc2ccccc2NC(=O)CC)C(=O)Nc2cccc(C(F)(F)F)c2)CC1 [A198] | > 12.9 |
| C=CS(=O)(=O)NCCN(C(=O)Nc1cccc(C(F)(F)F)c1)C1CCN(C(C)CCC)CC1 (stereo not shown) [A235] | > 41.1 |
| CCCCN1CCC(N(Cc2ccccc2)C(=O)Nc2cccc(CC)c2)CC1 [A63] | 0.413 |
| O=C(NC1CCN(Cc2ccc(F)cc2)CC1)C(F)(F)F [A305] | > 92.7 |
| Cc1ccc(CN(C(=O)Nc2ccccc2Br)C2CCN(Cc3ccccc3)CC2)o1 [B91] | > 67.6 |
